Laboratory results reported in US12275731B2, “Azaindole inhibitors of wild-type and mutant forms of LRRK2” (DANA-FARBER CANCER INSTITUTE, INC., priority 2018, dated 2025).

Key:
Assay in all cases: KinomeScan profiling
Format in all cases: binding
PKNB(M. tuberculosis) = PKNB(M. tuberculosis) (Mycobacterium tuberculosis, UniProt P9WI81); conditions: read-out: % control
MAK = biological target: T1, MAK (Homo sapiens, UniProt P20794); conditions: read-out: % control
T1 sequence (P20794 1-623): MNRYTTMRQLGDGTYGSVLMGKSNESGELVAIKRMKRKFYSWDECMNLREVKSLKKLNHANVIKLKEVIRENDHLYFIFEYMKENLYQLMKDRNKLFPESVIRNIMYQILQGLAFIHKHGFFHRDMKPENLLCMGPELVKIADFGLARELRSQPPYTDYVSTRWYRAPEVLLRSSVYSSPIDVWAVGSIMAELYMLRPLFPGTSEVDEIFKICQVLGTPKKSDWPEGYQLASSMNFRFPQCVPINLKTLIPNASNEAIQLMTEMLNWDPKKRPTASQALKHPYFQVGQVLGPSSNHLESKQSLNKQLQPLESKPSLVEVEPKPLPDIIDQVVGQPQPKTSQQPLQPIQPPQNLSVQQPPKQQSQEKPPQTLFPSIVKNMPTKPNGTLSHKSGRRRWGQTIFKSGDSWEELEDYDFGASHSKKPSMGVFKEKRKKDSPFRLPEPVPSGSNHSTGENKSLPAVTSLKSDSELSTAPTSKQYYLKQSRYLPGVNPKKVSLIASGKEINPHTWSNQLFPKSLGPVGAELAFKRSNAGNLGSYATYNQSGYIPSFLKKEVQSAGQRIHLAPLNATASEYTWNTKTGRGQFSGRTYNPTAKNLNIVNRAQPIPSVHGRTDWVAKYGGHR
Description: (§1) The kinase selectivity of inventive compounds 77, 96 and 101 was evaluated by KinomeScan®. KinomeScan® analysis was performed against a near comprehensive panel of 468 kinases. The control percentage (% control) for inventive compounds at 1 μM in DMSO was determined by Equation 1: % control=(inventive compound−positive control)/(negative control−positive control)×100%, Equation 1
(§2) wherein the positive control is a compound with a % control value of 0% relative light units (RLU), and the negative control (i.e., DMSO) has % control value of 100% RLU. The enzyme selectivity in the present invention is defined as follows: inventive compounds are considered active for an enzyme when the observed % control is less than 35% (<35%).

STK16 = biological target: T2, STK16 (Homo sapiens, UniProt O75716); conditions: STK16, 1 μM; read-out: % control
T2 construct: purchased KinomeScan® (panel service)
Description: as §1, §2

PIP5K2B = biological target: T3, PIP5K2B (Homo sapiens, UniProt P78356); conditions: read-out: % control
T3 construct: purchased KinomeScan® (panel service)
T3 sequence (P78356 1-416): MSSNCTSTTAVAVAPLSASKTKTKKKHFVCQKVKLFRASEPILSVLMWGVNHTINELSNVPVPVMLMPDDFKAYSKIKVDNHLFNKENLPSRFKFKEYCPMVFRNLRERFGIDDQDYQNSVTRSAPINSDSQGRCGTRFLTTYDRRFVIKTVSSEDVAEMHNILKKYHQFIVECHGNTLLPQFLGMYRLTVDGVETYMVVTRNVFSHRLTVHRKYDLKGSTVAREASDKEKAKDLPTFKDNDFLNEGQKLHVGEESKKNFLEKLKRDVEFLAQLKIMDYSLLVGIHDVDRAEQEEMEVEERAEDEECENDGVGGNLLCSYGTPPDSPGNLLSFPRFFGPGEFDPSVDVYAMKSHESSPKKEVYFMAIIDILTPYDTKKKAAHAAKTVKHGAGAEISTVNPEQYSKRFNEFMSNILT
Description: as §1, §2

MRCKA = MRCKA (Homo sapiens, UniProt Q5VT25); conditions: read-out: % control
Description: as §1, §2

[1] = biological target: T4, ABL1(Q252H)-nonphosphorylated (Homo sapiens, UniProt P00519, Q252H); conditions: read-out: % control
T4 construct: purchased KinomeScan®
Description: as §1, §2

EPHB4 = biological target: T5, EPHB4 (Homo sapiens, UniProt P54760); conditions: EPHB4, 1 μM; read-out: % control
T5 sequence (P54760 16-987): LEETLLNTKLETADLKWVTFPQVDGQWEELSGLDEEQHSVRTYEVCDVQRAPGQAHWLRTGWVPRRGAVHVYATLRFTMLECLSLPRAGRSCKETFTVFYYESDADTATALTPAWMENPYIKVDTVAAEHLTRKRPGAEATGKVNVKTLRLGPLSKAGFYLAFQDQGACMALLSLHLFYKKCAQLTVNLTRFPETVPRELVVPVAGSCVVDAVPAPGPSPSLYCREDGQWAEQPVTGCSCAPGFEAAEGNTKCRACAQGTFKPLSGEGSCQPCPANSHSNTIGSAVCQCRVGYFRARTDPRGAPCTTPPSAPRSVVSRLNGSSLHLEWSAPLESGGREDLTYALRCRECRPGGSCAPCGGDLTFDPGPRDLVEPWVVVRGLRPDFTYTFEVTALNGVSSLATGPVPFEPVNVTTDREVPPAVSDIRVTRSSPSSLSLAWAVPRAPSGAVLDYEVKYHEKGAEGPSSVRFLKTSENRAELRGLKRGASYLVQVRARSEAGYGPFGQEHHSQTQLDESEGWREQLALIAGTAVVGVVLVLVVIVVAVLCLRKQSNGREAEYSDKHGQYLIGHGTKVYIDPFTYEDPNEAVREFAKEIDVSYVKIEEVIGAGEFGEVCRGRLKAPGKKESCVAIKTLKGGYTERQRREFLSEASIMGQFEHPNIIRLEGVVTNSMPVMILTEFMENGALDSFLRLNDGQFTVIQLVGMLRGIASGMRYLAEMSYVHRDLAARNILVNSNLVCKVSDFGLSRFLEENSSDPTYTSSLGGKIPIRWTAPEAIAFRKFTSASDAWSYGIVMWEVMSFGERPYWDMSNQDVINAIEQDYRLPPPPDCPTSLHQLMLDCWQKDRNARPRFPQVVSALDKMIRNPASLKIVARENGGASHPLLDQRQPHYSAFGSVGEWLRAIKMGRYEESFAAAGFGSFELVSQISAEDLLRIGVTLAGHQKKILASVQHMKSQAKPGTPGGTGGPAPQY
Description: as §1, §2

PRKCH = PRKCH (Homo sapiens, UniProt P24723); conditions: read-out: % control
Description: as §1, §2

Chain of PRKCH (P24723 whole entry): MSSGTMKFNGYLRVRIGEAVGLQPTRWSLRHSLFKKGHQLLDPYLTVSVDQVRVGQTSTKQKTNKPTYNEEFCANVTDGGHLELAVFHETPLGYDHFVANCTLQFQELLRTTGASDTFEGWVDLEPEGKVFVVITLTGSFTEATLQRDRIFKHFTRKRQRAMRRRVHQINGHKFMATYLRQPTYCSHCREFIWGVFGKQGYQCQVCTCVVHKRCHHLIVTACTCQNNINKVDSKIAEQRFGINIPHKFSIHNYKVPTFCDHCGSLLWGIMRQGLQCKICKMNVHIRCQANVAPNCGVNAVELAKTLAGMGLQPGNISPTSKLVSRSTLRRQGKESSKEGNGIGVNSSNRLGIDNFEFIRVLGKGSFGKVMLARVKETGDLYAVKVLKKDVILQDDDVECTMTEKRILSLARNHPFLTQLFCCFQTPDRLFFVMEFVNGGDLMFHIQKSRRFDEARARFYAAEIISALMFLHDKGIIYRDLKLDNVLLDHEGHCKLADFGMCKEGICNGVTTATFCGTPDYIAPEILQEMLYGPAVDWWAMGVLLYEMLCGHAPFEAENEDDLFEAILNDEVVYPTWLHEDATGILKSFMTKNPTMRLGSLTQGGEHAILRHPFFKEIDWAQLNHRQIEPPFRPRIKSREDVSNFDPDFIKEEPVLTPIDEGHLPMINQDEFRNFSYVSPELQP
Chain of MRCKA (Q5VT25 whole entry): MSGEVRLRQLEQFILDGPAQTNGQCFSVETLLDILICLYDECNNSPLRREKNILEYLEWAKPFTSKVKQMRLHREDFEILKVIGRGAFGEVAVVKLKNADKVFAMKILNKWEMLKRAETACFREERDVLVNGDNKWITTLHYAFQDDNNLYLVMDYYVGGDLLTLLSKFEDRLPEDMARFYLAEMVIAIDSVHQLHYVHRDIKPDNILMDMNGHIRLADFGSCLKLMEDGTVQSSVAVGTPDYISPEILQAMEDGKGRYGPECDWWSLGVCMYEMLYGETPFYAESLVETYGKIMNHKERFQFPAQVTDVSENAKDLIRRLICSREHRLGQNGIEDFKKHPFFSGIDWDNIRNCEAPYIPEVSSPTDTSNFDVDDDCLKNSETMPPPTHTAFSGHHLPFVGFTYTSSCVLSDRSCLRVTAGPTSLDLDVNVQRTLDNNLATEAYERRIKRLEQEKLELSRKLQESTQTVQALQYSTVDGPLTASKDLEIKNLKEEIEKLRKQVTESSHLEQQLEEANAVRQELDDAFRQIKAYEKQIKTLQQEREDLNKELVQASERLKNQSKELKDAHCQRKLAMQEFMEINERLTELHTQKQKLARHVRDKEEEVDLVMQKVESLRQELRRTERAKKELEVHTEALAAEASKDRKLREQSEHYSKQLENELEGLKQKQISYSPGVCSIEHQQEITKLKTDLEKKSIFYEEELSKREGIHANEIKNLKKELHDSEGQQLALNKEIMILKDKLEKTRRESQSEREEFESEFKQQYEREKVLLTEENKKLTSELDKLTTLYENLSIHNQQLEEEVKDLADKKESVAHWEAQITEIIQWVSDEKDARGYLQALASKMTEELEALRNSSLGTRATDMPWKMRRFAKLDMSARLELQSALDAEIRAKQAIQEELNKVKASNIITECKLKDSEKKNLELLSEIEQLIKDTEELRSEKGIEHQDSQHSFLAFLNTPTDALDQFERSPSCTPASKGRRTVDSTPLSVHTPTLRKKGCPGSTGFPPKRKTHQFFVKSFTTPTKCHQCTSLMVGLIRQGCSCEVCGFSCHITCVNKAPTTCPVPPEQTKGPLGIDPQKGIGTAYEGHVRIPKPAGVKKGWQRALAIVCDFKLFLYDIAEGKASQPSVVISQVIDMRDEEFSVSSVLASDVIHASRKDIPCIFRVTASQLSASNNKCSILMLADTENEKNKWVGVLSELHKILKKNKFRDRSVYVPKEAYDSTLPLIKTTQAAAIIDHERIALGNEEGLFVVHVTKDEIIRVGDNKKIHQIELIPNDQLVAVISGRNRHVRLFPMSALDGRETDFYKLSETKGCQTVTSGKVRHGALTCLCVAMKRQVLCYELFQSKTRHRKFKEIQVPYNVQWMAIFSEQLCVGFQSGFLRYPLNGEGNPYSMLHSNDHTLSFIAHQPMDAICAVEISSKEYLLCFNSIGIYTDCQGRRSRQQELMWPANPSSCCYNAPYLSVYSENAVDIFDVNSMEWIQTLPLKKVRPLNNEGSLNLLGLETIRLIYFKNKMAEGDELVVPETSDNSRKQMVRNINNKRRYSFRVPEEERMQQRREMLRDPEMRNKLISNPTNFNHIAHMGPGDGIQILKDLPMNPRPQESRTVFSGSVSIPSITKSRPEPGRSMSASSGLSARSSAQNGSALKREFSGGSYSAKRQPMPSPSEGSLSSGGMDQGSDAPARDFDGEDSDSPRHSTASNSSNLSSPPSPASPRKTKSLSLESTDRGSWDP
T2 sequence (O75716 whole entry): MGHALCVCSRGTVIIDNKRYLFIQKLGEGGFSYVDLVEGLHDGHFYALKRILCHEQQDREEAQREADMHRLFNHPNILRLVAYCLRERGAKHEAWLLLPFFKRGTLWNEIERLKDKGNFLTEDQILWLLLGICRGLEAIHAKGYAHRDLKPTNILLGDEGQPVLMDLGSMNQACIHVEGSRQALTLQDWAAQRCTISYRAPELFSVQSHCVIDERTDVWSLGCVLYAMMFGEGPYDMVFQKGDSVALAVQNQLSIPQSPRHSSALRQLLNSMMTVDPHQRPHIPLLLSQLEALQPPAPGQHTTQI
Chain of PKNB(M. tuberculosis) (P9WI81 whole entry): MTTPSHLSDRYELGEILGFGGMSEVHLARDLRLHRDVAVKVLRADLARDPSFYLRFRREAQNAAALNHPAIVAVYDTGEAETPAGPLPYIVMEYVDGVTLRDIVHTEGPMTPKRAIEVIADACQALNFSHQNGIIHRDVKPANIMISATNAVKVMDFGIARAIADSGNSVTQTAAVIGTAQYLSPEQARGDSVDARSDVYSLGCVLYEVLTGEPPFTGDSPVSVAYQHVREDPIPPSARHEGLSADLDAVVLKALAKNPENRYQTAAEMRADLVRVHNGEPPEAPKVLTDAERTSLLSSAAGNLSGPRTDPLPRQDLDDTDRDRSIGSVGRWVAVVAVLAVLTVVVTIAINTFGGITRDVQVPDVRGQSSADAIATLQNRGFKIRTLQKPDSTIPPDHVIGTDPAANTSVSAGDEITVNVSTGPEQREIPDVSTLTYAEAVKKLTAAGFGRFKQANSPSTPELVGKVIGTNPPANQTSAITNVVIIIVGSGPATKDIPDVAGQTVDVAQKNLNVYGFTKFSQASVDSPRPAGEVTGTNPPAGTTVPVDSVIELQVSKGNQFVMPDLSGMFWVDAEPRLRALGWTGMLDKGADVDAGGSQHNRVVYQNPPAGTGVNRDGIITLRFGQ

SMILES | remaining binding at 1 µM (PKNB(M. tuberculosis)) [%] | remaining binding at 1 µM (MAK) [%] | remaining binding at 1 µM (STK16) [%] | remaining binding at 1 µM (PIP5K2B) [%] | remaining binding at 1 µM (MRCKA) [%] | remaining binding at 1 µM [1] [%] | remaining binding at 1 µM (EPHB4) [%] | remaining binding at 1 µM (PRKCH) [%]
CNc1c(-c2cnn([C@H]3CCN(C(C)=O)C[C@@H]3F)c2)cnc2[nH]cc(Cl)c12 [Compound 77, 1-((3S,4S)-4-(4-(3-chloro-4-(methylamino)-1H-pyrrolo[2,3-b]pyridin-5-yl)-1H-pyrazol-1-yl)-3-fluoropiperidin-1-yl)ethan-1-one] | 30 | 100 | 2.9 | 3.4 | 100 | 50 | 100 | 83
O=C(c1ccc(-c2cnc3[nH]cc(Cl)c3c2NC2CCCC2)cc1)N1CCC(N2CCOCC2)CC1 [Compound 101, (4-(3-chloro-4-(cyclopentylamino)-1H-pyrrolo[2,3-b]pyridin-5-yl)phenyl)(4-morpholinopiperidin-1-yl)methanone] | 89 | 87 | 13 | 12 | 100 | 92 | 62 | 73
CNc1c(-c2ccc(C(=O)N3CCC(N4CCOCC4)CC3)cc2)cnc2[nH]cc(Cl)c12 [Compound 96, (4-(3-chloro-4-(methylamino)-1H-pyrrolo[2,3-b]pyridin-5-yl)phenyl)(4-morpholinopiperidin-1-yl)methanone] | 61 | 97 | 2 | 4.9 | 100 | 64 | 100 | 92
